The record followed here is ChEMBL document CHEMBL3813603, “Selective anti-malarial minor groove binders” (Bioorg Med Chem Lett, 2016).

One may read the IC50 as the concentration that inhibits the measured activity by half. In general, inhibition refers to how much of the control response was suppressed. High values mean strong suppression, low ones little suppression.

Data set [1] concerns Plasmodium falciparum. The data set can be described thus: Antimalarial activity against Plasmodium falciparum Dd2 incubated for 72 hours by DAPI-staining based confocal imaging analysis. To be noted: Dd2, 72 h. It is filed as functional, organism-based.
Data set [2] in a line: (§1) Cytotoxicity against HEK293 cells at 20 uM by alamar blue assay. The class given is cell-based. Particulars: human, HEK293 cells; read-out: INH; call rule not given here.
Data set [3] relates to Plasmodium falciparum. As to the kind of experiment: Antimalarial activity against Plasmodium falciparum 3D7 incubated for 72 hours by DAPI-staining based confocal imaging analysis. The class given is functional, organism-based.
The nature of data set [4]: Therapeutic ratio of IC50 for HEK293 cells to IC50 for Plasmodium falciparum 3D7. To be noted: human, HEK293 cells versus Plasmodium falciparum 3D7; read-out: Ratio IC50. It is filed as cell-based.
For data set [5], the system named is Plasmodium falciparum. The data set can be described thus: Antimalarial activity against Plasmodium falciparum 3D7 at 20 uM incubated for 72 hours by DAPI-staining based confocal imaging analysis. The class given is functional. Particulars: 3D7, 72 h.
Data set [6] concerns HEK293. Described as §1. It is filed as cell-based. To be noted: human, hek293, 20 µM.
Data set [7] has as its system Plasmodium falciparum. As to the kind of experiment: Antimalarial activity against Plasmodium falciparum Dd2 at 20 uM incubated for 72 hours by DAPI-staining based confocal imaging analysis. The class given is functional. Particulars: Dd2, 72 h.
Data set [8] in a line: Cytotoxicity against HEK293 cells at 10 uM by alamar blue assay. The class given is cell-based. Particulars: human, read-out: INH. Background: The colour change of resazurin is a common sign of viable cells or microbes.
In data set [9] the test system is HEK293. As to the kind of experiment: Cytotoxicity against HEK293 cells by alamar blue assay. To be noted: Homo sapiens. It is filed as cell-based.
Where [10] appears, read: Plasmodium falciparum, 3D7, 72 h, read-out: IC50.

As to `COc1cccc(/C=C/c2ccc(C(=O)Nc3cc(C(=O)Nc4nc(C(=O)NCCCN(C)C)c(CCC(C)C)s4)n(C)c3)cc2)c1`, the IC50 in the data set on Plasmodium falciparum [1] worked out at 1.13 µM; in the data set on Plasmodium falciparum [3] (setting [10]), 0.544 µM. Further, the cytotoxicity at 20 µM in [2] was 86%. The selectivity ratio in [4] is greater than 36.
As for `CN(C)CCCNC(=O)c1cc(NC(=O)c2cc(NC(=O)c3cc(NC(=N)c4ccccc4)cn3C)cn2C)cn1C`, the inhibition at 20 µM was 90% in the data set with Plasmodium falciparum [5] and 63% with Plasmodium falciparum [7]. The Activity entry in the data set with HEK293 [6] is “Non-toxic”.
With `CSc1ccc(/C=C/c2ccc3cc(C(=O)Nc4cc(C(=O)Nc5cc(C(=O)NCCN6CCOCC6)n(C)c5)n(C)c4)ccc3n2)cc1`, the IC50 came out at 1.9 µM in the data set on Plasmodium falciparum [1] and 1.77 µM in the data set with Plasmodium falciparum [3] (setting [10]). In the data set with HEK293 [6], the Activity result was “Non-toxic”.
For `CC(=N)Nc1cc(C(=O)Nc2cc(C(=O)Nc3cc(C(=O)NCCCN(C)C)n(C)c3)n(C)c2)n(C)c1`, in that order: 6.46 µM, 6.42 µM and “Non-toxic”.
For `CC(C)CCc1sc(NC(=O)c2cc(NC(=O)c3ccc(/C=C/c4ccc5ccccc5n4)cc3)cn2C)nc1C(=O)NCCN1CCOCC1`, in that order: 0.241 µM, 0.103 µM and “Non-toxic”.
Regarding `COc1ccc(/C=C/c2ccc3cc(C(=O)Nc4cc(C(=O)Nc5cc(C(=O)NCCN6CCOCC6)n(C)c5)n(C)c4)ccc3n2)cc1`, the IC50 was found to be 2.99 µM in the data set with Plasmodium falciparum [1] and 1.95 µM in the data set on Plasmodium falciparum [3] (setting [10]). For the same compound, the Activity entry in the data set with HEK293 [6] was “Non-toxic”.
For `Cn1cc(NC(=O)c2cc(NC(=O)c3cc(NC(=O)c4cc5ccccc5cn4)cn3C)cn2C)cc1C(=O)NCCCN1CCOCC1`, in that order: 5.99 µM, 7.86 µM and “Non-toxic”.
Taken in the same sequence, the figures for `Cn1cc(NC(=O)c2cc(NC(=O)c3ccc(/C=C/c4ccc5nsnc5c4)cc3)cn2C)cc1C(=O)NCCN1CCOCC1` were 5.14 µM, 6.04 µM and “Non-toxic”.
For `CN(C)CCCNC(=O)c1cc(NC(=O)c2cc(NC(=O)c3cc4ccccc4cn3)cn2C)cn1C`, in that order: 4.35 µM, 4.7 µM and “Non-toxic”.
Take `COc1cccc(C(=N)Nc2cc(C(=O)Nc3cc(C(=O)Nc4cc(C(=O)NCCCN(C)C)n(C)c4)n(C(C)C)c3)n(C)c2)c1`: the Activity result in the data set with HEK293 [6] is listed as “Non-toxic”. The compound also registered an inhibition at 20 µM in the data set with Plasmodium falciparum [7] of 100%. In addition, the IC50 in the data set on Plasmodium falciparum [3] (setting [10]) came out at 9.98 µM.
For the compound `Cn1cc(NC(=O)c2cc(NC(=O)c3cc(NC(=O)c4ccc(Cl)cc4Cl)cn3C)cn2C)cc1C(=O)NCCCN1CCOCC1`, the IC50 came to 3.62 µM with Plasmodium falciparum [1] and 3.04 µM in the data set with Plasmodium falciparum [3] (setting [10]). For the same compound, in the data set on HEK293 [6], the Activity entry was “Non-toxic”.
Taken in the same sequence, the figures for `Cn1cc(NC(=O)c2cc(NC(=O)c3ccc(/C=C/c4ccc(C(F)(F)F)cc4)cc3)cn2C)cc1C(=O)NCCN1CCOCC1` were 3.69 µM, 3.57 µM and “Non-toxic”.
Taken in the same sequence, the figures for `Cn1cc(NC(=O)c2cc(NC(=O)c3ccc(/C=C/c4ccc5nonc5c4)cc3)cn2C)cc1C(=O)NCCN1CCOCC1` were 2.3 µM, 1.93 µM and “Non-toxic”.
For `Cn1cc(NC(=O)c2cc(NC(=O)c3cc(NC(=O)c4ccc(Cl)cc4Cl)cn3C)cn2C)cc1C(=O)NCCN1CCOCC1`, in that order: 3.07 µM, 1.8 µM and “Non-toxic”.
As for `Cn1cc(NC(=O)c2cc(NC(=O)c3ccc(/C=C/c4cccc(F)c4)cc3)cn2C)cc1C(=O)NCCN1CCOCC1`, the figures for the IC50 with Plasmodium falciparum [1] and in the data set with Plasmodium falciparum [3] (setting [10]) were 2.75 µM and 3.32 µM, respectively. In the data set with HEK293 [6], the Activity entry was “Non-toxic”.
For `Cn1cc(NC(=O)c2cc(NC(=O)c3cc4ccccc4cn3)cn2C)cc1C(=O)NCCN1CCOCC1`, in that order: 3.27 µM, 4.31 µM and “Non-toxic”.
For `Cn1cc(NC(=O)c2cc(NC(=O)c3cc(NC=O)cn3C)cn2C)cc1C(=O)NCCN1CCOCC1`, the values for the inhibition at 20 µM in the data set on Plasmodium falciparum [5] and with Plasmodium falciparum [7] were 98% and 25%, respectively. Besides, in the data set on HEK293 [6], the Activity result is given as “Non-toxic”.
With `CC(C)CCc1sc(NC(=O)c2cc(NC(=O)c3cc(/C=C/c4ccc([N+](=O)[O-])cc4)cn3C)cn2C)nc1C(=O)NCCN1CCOCC1`, the IC50 in the data set with Plasmodium falciparum [1] came out at 0.289 µM; in the data set with Plasmodium falciparum [3] (setting [10]), 0.322 µM. Also, the cytotoxicity at 20 µM in data set [2] is 54%. In addition, the selectivity ratio in data set [4] was greater than 60.
Regarding `Cn1cc(NC(=O)c2cc(NC(=O)c3ccc(/C=C/c4ccc(F)cc4)cc3)cn2C)cc1C(=O)NCCN1CCOCC1`, the IC50 in the data set on Plasmodium falciparum [1] was found to be 3.34 µM; in the data set with Plasmodium falciparum [3] (setting [10]), 3.3 µM. Besides, in the data set on HEK293 [6], the Activity entry is “Non-toxic”.
For `CC(C)n1cc(NC(=O)c2cc(NC(=O)c3cnc(Cl)c(Cl)c3)cn2C)cc1C(=O)Nc1cc(C(=O)NCCCN(C)C)n(C)c1`, the values for the inhibition at 20 µM with Plasmodium falciparum [5] and in the data set on Plasmodium falciparum [7] were 75% and 65%, respectively. The Activity result with HEK293 [6] is listed as “Non-toxic”.
As for `CN(C)CCCNC(=O)c1cc(NC(=O)c2cc(NC(=O)c3cc(NC(=N)c4cc5ccccc5cn4)cn3C)cn2C)cn1C`, the half-inhibitory concentration (IC50) with Plasmodium falciparum [1] came to 2.77 µM; with Plasmodium falciparum [3] (setting [10]), 3.38 µM. In addition, in data set [8], the cytotoxicity at 10 µM is 40%.
For `COc1ccnc(C(=N)Nc2cc(C(=O)Nc3cc(C(=O)Nc4nc(C(=O)NCCN5CCOCC5)c(C(C)C)s4)n(C)c3)n(C)c2)c1`, the 50% inhibitory concentration (IC50) with Plasmodium falciparum [1] turned out to be 2.97 µM; with Plasmodium falciparum [3] (setting [10]), 2.73 µM. Also, in the data set on HEK293 [6], the Activity result is “Non-toxic”.
For `CN(C)CCCn1cnc(NC(=O)c2cc(NC(=O)c3cc(NC(=O)c4cc5ccccc5cn4)cn3C)cn2C)c1.O=C(O)C(F)(F)F`, in that order: 4.48 µM, 5.49 µM and “Non-toxic”.
For `CC(C)c1sc(NC(=O)c2cc(NC(=O)c3cc(NC(=O)c4cc5ccccc5cn4)cn3C)cn2C)nc1C(=O)NCCN1CCOCC1`, the IC50 worked out at 0.636 µM with Plasmodium falciparum [1] and 0.469 µM in the data set with Plasmodium falciparum [3] (setting [10]). Besides, the Activity result with HEK293 [6] is “Non-toxic”. Moreover, the selectivity ratio in data set [4] was greater than 42.
`CC(C)CCc1sc(NC(=O)c2cc(NC(=O)c3cc4ccccc4cn3)cn2C)nc1C(=O)NCCCN(C)C`: the IC50 was found to be 2 µM in the data set on Plasmodium falciparum [1] and 1.41 µM with Plasmodium falciparum [3] (setting [10]). For the same compound, the Activity result with HEK293 [6] is on record as “Non-toxic”.
Regarding `Cn1cc(NC(=O)c2cc(NC(=O)c3ccc(/C=C/c4ccncc4)cc3)cn2C)cc1C(=O)NCCN1CCOCC1`, the IC50 in the data set on Plasmodium falciparum [1] was 0.923 µM; with Plasmodium falciparum [3] (setting [10]), 0.78 µM. In [2], the cytotoxicity at 20 µM amounted to 63%. The selectivity ratio in data set [4] was greater than 26.
As for `COc1cccc(/C=C/c2cccc(C(=O)Nc3cc(C(=O)Nc4nc(C(=O)NCCCN(C)C)c(CCC(C)C)s4)n(C)c3)c2)c1`, the values for the IC50 in the data set with Plasmodium falciparum [1], in the data set on Plasmodium falciparum [3] (setting [10]) and in the data set with HEK293 [9] were 1.15 µM, 0.868 µM and 5.8 µM, respectively. Moreover, the selectivity ratio in [4] turned out to be 6.7.
`CC(C)CCc1sc(NC(=O)c2cc(NC(=O)c3ccc(/C=C/c4ccc5ccccc5c4)cc3)cn2C)nc1C(=O)NCCN1CCOCC1`: the IC50 was 0.588 µM with Plasmodium falciparum [1] and 0.39 µM in the data set on Plasmodium falciparum [3] (setting [10]). For the same compound, in the data set on HEK293 [6], the Activity result is “Non-toxic”. Further, the selectivity ratio in data set [4] was greater than 50.
On to `CC(C)CCc1sc(NC(=O)c2cc(NC(=O)c3cc(/C=C/c4ccc([N+](=O)[O-])cc4)cn3C)cn2C)nc1C(=O)NCCCN(C)C`, for which the IC50 in the data set on Plasmodium falciparum [1] turned out to be 0.339 µM; in the data set on Plasmodium falciparum [3] (setting [10]), 0.35 µM. Further, in data set [2], the cytotoxicity at 20 µM is 60%. Also, the selectivity ratio in data set [4] was greater than 14.
Take `COc1cccc(C(=N)Nc2cc(C(=O)Nc3cc(C(=O)Nc4cc(C(=O)NCCCN5CCOCC5)n(C)c4)n(C)c3)n(C)c2)c1`: the Activity entry with HEK293 [6] is “Non-toxic”. Also, at 20 µM the inhibition with Plasmodium falciparum [7] was 35%. In the data set on Plasmodium falciparum [3], the concentration for half-maximal inhibition (IC50) result is on record as “Not Active”.
As to `Cn1cc(NC(=O)c2cc(NC(=O)c3ccc(/C=C/c4nc5ccccc5o4)cc3)cn2C)cc1C(=O)NCCN1CCOCC1`, the half-maximal inhibitory concentration (IC50) was determined as 0.038 µM with Plasmodium falciparum [1] and 0.039 µM in the data set with Plasmodium falciparum [3] (setting [10]). The Activity result in the data set on HEK293 [6] is listed as “Non-toxic”. Also, in data set [4], the selectivity ratio is greater than 514.
Regarding `C[C@@H]1CC[C@H]2[C@@H](C)C(=O)O[C@@H]3O[C@@]4(C)CC[C@@H]1[C@]32OO4` [ARTEMISININ], the concentration for half-maximal inhibition (IC50) was 0.009 µM in the data set on Plasmodium falciparum [1] and greater than 120 µM with HEK293 [9]. Moreover, the selectivity ratio in data set [4] is greater than 10000.
In turn, `CCN(CC)CCCC(C)Nc1ccnc2cc(Cl)ccc12` (configuration not stated) [CHLOROQUINE] yielded an IC50 with HEK293 [9] greater than 120 µM.
For the compound `COc1ccc(C[C@H](N)C(=O)N[C@H]2[C@@H](O)[C@H](n3cnc4c(N(C)C)ncnc43)O[C@@H]2CO)cc1` [PUROMYCIN], the half-inhibitory concentration (IC50) with Plasmodium falciparum [1] came out at 0.062 µM; with Plasmodium falciparum [3] (setting [10]), 0.06 µM. Also, in data set [4], the selectivity ratio turned out to be 6.
On to `CCc1nc(N)nc(N)c1-c1ccc(Cl)cc1` [PYRIMETHAMINE], for which the IC50 in the data set with Plasmodium falciparum [1] was greater than 0.12 µM; in the data set on Plasmodium falciparum [3] (setting [10]), 0.00845 µM; in the data set on HEK293 [9] it was 8.07 µM. Besides, the selectivity ratio in [4] came to 955.
